Target: YegI (Escherichia coli, UniProt Q8X7J8)
Assay: biochemical

Sequence of YegI (Q8X7J8 whole entry): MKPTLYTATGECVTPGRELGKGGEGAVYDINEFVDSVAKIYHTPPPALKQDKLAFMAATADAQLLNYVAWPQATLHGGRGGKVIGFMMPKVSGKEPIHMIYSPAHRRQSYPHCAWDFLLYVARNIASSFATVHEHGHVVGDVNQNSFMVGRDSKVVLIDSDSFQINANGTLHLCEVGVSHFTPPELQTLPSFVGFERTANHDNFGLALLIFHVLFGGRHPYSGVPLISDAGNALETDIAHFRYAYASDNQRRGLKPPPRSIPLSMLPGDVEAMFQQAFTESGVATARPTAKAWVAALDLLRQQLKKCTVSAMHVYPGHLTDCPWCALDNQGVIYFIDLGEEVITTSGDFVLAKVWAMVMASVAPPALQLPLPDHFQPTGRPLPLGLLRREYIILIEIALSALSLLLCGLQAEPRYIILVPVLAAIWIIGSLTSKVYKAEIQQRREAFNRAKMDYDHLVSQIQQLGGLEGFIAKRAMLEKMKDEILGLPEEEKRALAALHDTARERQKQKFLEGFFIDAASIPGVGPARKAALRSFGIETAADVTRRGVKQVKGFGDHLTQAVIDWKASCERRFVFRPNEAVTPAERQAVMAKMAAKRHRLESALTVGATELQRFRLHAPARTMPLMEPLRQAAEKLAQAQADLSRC

Q: How did the IC50 turn out when `CN[C@@H]1C[C@H]2O[C@@](C)([C@@H]1OC)n1c3ccccc3c3c4c(c5c6ccccc6n2c5c31)C(=O)NC4` [staurosporine] was run?
A: ~50 µM
